Assay results reported in paper PMC5218480 (PLoS ONE, 2017).

System: MV-4-11 cells
Assay: Gene expression microarray analysis (Affymetrix PrimeView) and GSEA
Format: cell-based, human
Set-up: RFU PODN (11730768_x_at) / Fold change /veh PODN (11730768_x_at) / RFU LINC00158 (11744669_a_at) / Fold change /veh LINC00158 (11744669_a_at) / RFU DUSP10 (11751237_a_at) / Fold change /veh DUSP10 (11751237_a_at) / RFU ID3 (11757404_x_at) / Fold change /veh ID3 (11757404_x_at) / RFU PLEKHG5 (11737974_s_at) / Fold change /veh PLEKHG5 (11737974_s_at) / RFU LRRC4B (11730491_at) / Fold change /veh LRRC4B (11730491_at) / RFU GIMAP4 (11747438_a_at) / Fold change /veh GIMAP4 (11747438_a_at) / RFU KRT8 (11758183_x_at) / Fold change /veh KRT8 (11758183_x_at) / RFU CNN1 (11734310_a_at) / Fold change /veh CNN1 (11734310_a_at) / RFU VPS37D (11726825_at) / Fold change /veh VPS37D (11726825_at) / RFU C10orf10 (11716522_x_at) / Fold change /veh C10orf10 (11716522_x_at) / RFU KIR2DL2 /// KIR2DL4 /// KIR2DL5A /// KIR2DL5B /// KIR2DS1 /// KIR2DS2 /// KIR2DS3 /// KIR2DS4 /// KIR3DL3 /// KIR3DL3 /// KIR3DS1 (11738374_at) / Fold change /veh KIR2DL2 /// KIR2DL4 /// KIR2DL5A /// KIR2DL5B /// KIR2DS1 /// KIR2DS2 /// KIR2DS3 /// KIR2DS4 /// KIR3DL3 /// KIR3DL3 /// KIR3DS1 (11738374_at) / RFU C1QL1 (11718748_at) / Fold change /veh C1QL1 (11718748_at) / RFU TMPRSS4 (11747572_a_at) / Fold change /veh TMPRSS4 (11747572_a_at) / RFU HAMP (11756126_x_at) / Fold change /veh HAMP (11756126_x_at) / RFU RNFT2 (11725882_a_at) / Fold change /veh RNFT2 (11725882_a_at) / RFU NR4A2 (11747474_a_at) / Fold change /veh NR4A2 (11747474_a_at) / RFU ABCC12 (11746883_a_at) / Fold change /veh ABCC12 (11746883_a_at) / RFU TMEM136 (11760407_x_at) / Fold change /veh TMEM136 (11760407_x_at) / RFU CLDN22 /// WWC2 (11732394_at) / Fold change /veh CLDN22 /// WWC2 (11732394_at) / RFU HLA-DPB1 (11760878_x_at) / Fold change /veh HLA-DPB1 (11760878_x_at) / RFU SPINT1 (11716480_a_at) / Fold change /veh SPINT1 (11716480_a_at) / RFU GAP43 (11754022_s_at) / Fold change /veh GAP43 (11754022_s_at) / RFU A4GNT (11735810_at) / Fold change /veh A4GNT (11735810_at) / RFU PRB3 (11715151_x_at) / Fold change /veh PRB3 (11715151_x_at) / RFU TUBB4B (11761932_at) / Fold change /veh TUBB4B (11761932_at) / RFU CAPN14 (11732068_a_at) / Fold change /veh CAPN14 (11732068_a_at) / RFU TMCC2 (11721928_a_at) / Fold change /veh TMCC2 (11721928_a_at) / RFU IRGQ (11745062_a_at) / Fold change /veh IRGQ (11745062_a_at) / RFU FAM174B (11720279_a_at) / Fold change /veh FAM174B (11720279_a_at) / RFU TMPRSS4 (11748680_a_at) / Fold change /veh TMPRSS4 (11748680_a_at) / RFU FAM212B (11763350_a_at) / Fold change /veh FAM212B (11763350_a_at) / RFU PLEKHG5 (11743358_a_at) / Fold change /veh PLEKHG5 (11743358_a_at) / RFU ZSCAN30 (11745921_a_at) / Fold change /veh ZSCAN30 (11745921_a_at) / RFU CMKLR1 (11741424_a_at) / Fold change /veh CMKLR1 (11741424_a_at) / RFU LOC101060620 /// MAPK8IP1 (11723275_at) / Fold change /veh LOC101060620 /// MAPK8IP1 (11723275_at) / RFU SPTSSB (11747773_x_at) / Fold change /veh SPTSSB (11747773_x_at) / RFU PRSS12 (11739890_at) / Fold change /veh PRSS12 (11739890_at) / RFU BIN1 (11741810_x_at) / Fold change /veh BIN1 (11741810_x_at) / RFU WNT11 (11732464_a_at) / Fold change /veh WNT11 (11732464_a_at) / RFU C10orf10 (11716521_a_at) / Fold change /veh C10orf10 (11716521_a_at) / RFU C5orf56 (11738089_at) / Fold change /veh C5orf56 (11738089_at) / RFU CYB561 (11721691_x_at) / Fold change /veh CYB561 (11721691_x_at) / RFU ANKRD19P (11752326_a_at) / Fold change /veh ANKRD19P (11752326_a_at) / RFU OR2T12 /// OR2T33 /// OR2T8 (11738714_s_at) / Fold change /veh OR2T12 /// OR2T33 /// OR2T8 (11738714_s_at) / RFU VCAN (11748164_a_at) / Fold change /veh VCAN (11748164_a_at) / RFU JSRP1 (11732532_at) / Fold change /veh JSRP1 (11732532_at) / RFU KRTAP10-11 (11738290_x_at) / Fold change /veh KRTAP10-11 (11738290_x_at) / RFU MYO3A (11730013_a_at) / Fold change /veh MYO3A (11730013_a_at) / RFU EBF3 (11725865_a_at) / Fold change /veh EBF3 (11725865_a_at) / RFU CAMK2N1 (11719241_x_at) / Fold change /veh CAMK2N1 (11719241_x_at) / RFU C5orf56 (11738088_a_at) / Fold change /veh C5orf56 (11738088_a_at) / RFU OLFML3 (11715873_a_at) / Fold change /veh OLFML3 (11715873_a_at) / RFU LOC100653217 /// NTM (11731650_a_at) / Fold change /veh LOC100653217 /// NTM (11731650_a_at) / RFU MAPK11 (11762145_a_at) / Fold change /veh MAPK11 (11762145_a_at) / RFU FIZ1 (11724087_x_at) / Fold change /veh FIZ1 (11724087_x_at) / RFU OASL (11726364_x_at) / Fold change /veh OASL (11726364_x_at) / RFU SOX15 (11748057_x_at) / Fold change /veh SOX15 (11748057_x_at) / RFU CD79A (11719716_a_at) / Fold change /veh CD79A (11719716_a_at) / RFU HIST1H1D (11736915_at) / Fold change /veh HIST1H1D (11736915_at) / RFU CASKIN2 (11723855_a_at) / Fold change /veh CASKIN2 (11723855_a_at) / RFU LOC730098 (11760151_x_at) / Fold change /veh LOC730098 (11760151_x_at) / RFU OR4N2 (11742367_at) / Fold change /veh OR4N2 (11742367_at) / RFU PRRT2 (11749266_a_at) / Fold change /veh PRRT2 (11749266_a_at) / RFU SNX32 (11753110_a_at) / Fold change /veh SNX32 (11753110_a_at) / RFU CDHR5 (11726645_a_at) / Fold change /veh CDHR5 (11726645_a_at) / RFU RCAN1 (11760418_a_at) / Fold change /veh RCAN1 (11760418_a_at) / RFU FAM167A (11723789_a_at) / Fold change /veh FAM167A (11723789_a_at) / RFU FAM26E (11764081_at) / Fold change /veh FAM26E (11764081_at) / RFU ISYNA1 (11749810_s_at) / Fold change /veh ISYNA1 (11749810_s_at) / RFU ACY1 (11761880_at) / Fold change /veh ACY1 (11761880_at) / RFU 11764098_at / Fold change /veh 11764098_at / RFU SAMD14 (11745864_x_at) / Fold change /veh SAMD14 (11745864_x_at) / RFU NPB (11741838_a_at) / Fold change /veh NPB (11741838_a_at) / RFU TMPRSS6 (11731388_a_at) / Fold change /veh TMPRSS6 (11731388_a_at) / RFU KRTAP10-2 (11738614_at) / Fold change /veh KRTAP10-2 (11738614_at) / RFU ARHGAP8 /// PRR5-ARHGAP8 (11727945_x_at) / Fold change /veh ARHGAP8 /// PRR5-ARHGAP8 (11727945_x_at) / RFU KRTAP5-7 /// NADSYN1 (11734609_at) / Fold change /veh KRTAP5-7 /// NADSYN1 (11734609_at) / RFU RASL12 (11751679_a_at) / Fold change /veh RASL12 (11751679_a_at) / RFU CDKN2B (11736163_a_at) / Fold change /veh CDKN2B (11736163_a_at) / RFU PRF1 (11729649_at) / Fold change /veh PRF1 (11729649_at) / RFU, ZNF638 /// ZNF638-IT1 / Fold change vs veh, ZNF638 /// ZNF638-IT1 / RFU, PANK3 / Fold change vs veh, PANK3 / RFU, SH3YL1 / Fold change vs veh, SH3YL1 / RFU, ZEB2 / Fold change vs veh, ZEB2 / RFU, NRIP1 / Fold change vs veh, NRIP1 / RFU, PTTG1IP / Fold change vs veh, PTTG1IP / RFU, CAPN2 / Fold change vs veh, CAPN2 / RFU, MED14 / Fold change vs veh, MED14 / RFU, SNORA58 / Fold change vs veh, SNORA58 / RFU, C1orf63 / Fold change vs veh, C1orf63 / RFU, LRRFIP1 / Fold change vs veh, LRRFIP1 / RFU, NDUFAF7 / Fold change vs veh, NDUFAF7 / RFU, SLC12A2 / Fold change vs veh, SLC12A2 / RFU, IBTK / Fold change vs veh, IBTK / RFU, ESF1 / Fold change vs veh, ESF1 / Fold change vs veh, TMEM50B / RFU, TAOK1 / Fold change vs veh, TAOK1 / RFU, ACBD3 / Fold change vs veh, ACBD3 / RFU, TMA16 / Fold change vs veh, TMA16 / RFU, RWDD3 / Fold change vs veh, RWDD3 / RFU, BCAT1 / Fold change vs veh, BCAT1 / RFU, EDEM3 / Fold change vs veh, EDEM3 / RFU, TMEM33 / Fold change vs veh, TMEM33 / RFU, WDR75 / Fold change vs veh, WDR75 / RFU, AHCTF1 / Fold change vs veh, AHCTF1 / RFU, TFRC / Fold change vs veh, TFRC / RFU, ZDHHC17 / Fold change vs veh, ZDHHC17 / RFU, NOM1 / Fold change vs veh, NOM1 / RFU, ARL8B / Fold change vs veh, ARL8B / RFU, ZBTB11 / Fold change vs veh, ZBTB11 / RFU, TAMM41 / Fold change vs veh, TAMM41 / RFU, KIAA1704 /// LOC100996395 / Fold change vs veh, KIAA1704 /// LOC100996395 / RFU, ING1 / Fold change vs veh, ING1 / RFU, TRMT61B / Fold change vs veh, TRMT61B / RFU, FUBP3 / Fold change vs veh, FUBP3 / RFU, TP53 / Fold change vs veh, TP53 / RFU, TNKS2 / Fold change vs veh, TNKS2 / RFU, ZFP14 / Fold change vs veh, ZFP14 / RFU, ACTR2 / Fold change vs veh, ACTR2 / RFU, PPP3R1 / Fold change vs veh, PPP3R1 / RFU, PIK3R1 / Fold change vs veh, PIK3R1 / RFU, HNRNPA1 / Fold change vs veh, HNRNPA1 / RFU, RNF170 / Fold change vs veh, RNF170 / RFU, ZNF28 / Fold change vs veh, ZNF28 / RFU, RNGTT / Fold change vs veh, RNGTT / RFU, OGT / Fold change vs veh, OGT / RFU, BRD1 / Fold change vs veh, BRD1 / RFU, MARS / Fold change vs veh, MARS / RFU, ZNF655 / Fold change vs veh, ZNF655 / RFU, FAHD1 / Fold change vs veh, FAHD1 / RFU, BDP1 / Fold change vs veh, BDP1 / RFU, LRRCC1 / Fold change vs veh, LRRCC1 / RFU, ARID1A / Fold change vs veh, ARID1A / RFU, ZNF146 / Fold change vs veh, ZNF146 / RFU, ZNF330 / Fold change vs veh, ZNF330 / RFU, GPN3 / Fold change vs veh, GPN3 / RFU, C9orf123 / Fold change vs veh, C9orf123 / RFU, N4BP2L2 / Fold change vs veh, N4BP2L2 / RFU, ARFIP1 / Fold change vs veh, ARFIP1 / RFU, FAM179B / Fold change vs veh, FAM179B / RFU, BCL10 / Fold change vs veh, BCL10 / RFU, UHRF1BP1L / Fold change vs veh, UHRF1BP1L / RFU, BET1 / Fold change vs veh, BET1 / RFU, CNOT2 / Fold change vs veh, CNOT2 / RFU, ZNF268 / Fold change vs veh, ZNF268 / Fold change vs veh, ZNF507 / RFU, DGCR2 / Fold change vs veh, DGCR2 / RFU, WDSUB1 / Fold change vs veh, WDSUB1 / Fold change vs veh, HSP90B1 /// MIR3652 / RFU, ADSS / Fold change vs veh, ADSS / RFU, GK / Fold change vs veh, GK / RFU, ZNF148 / Fold change vs veh, ZNF148 / RFU, TAF9 / Fold change vs veh, TAF9 / RFU, SLC1A5 / Fold change vs veh, SLC1A5 / RFU, SLMO2 / Fold change vs veh, SLMO2 / RFU, ABCC4 / Fold change vs veh, ABCC4 / RFU, LOC101060439 /// RAP1B / Fold change vs veh, LOC101060439 /// RAP1B / RFU, RFX7 / Fold change vs veh, RFX7 / RFU, GTPBP10 / Fold change vs veh, GTPBP10 / RFU, CNEP1R1 / Fold change vs veh, CNEP1R1 / RFU, BIVM-ERCC5 /// ERCC5 / Fold change vs veh, BIVM-ERCC5 /// ERCC5 / RFU, ILF3 / Fold change vs veh, ILF3 / RFU 11762660_at / Fold change /veh 11762660_at / RFU VCAN (11757783_s_at) / Fold change /veh VCAN (11757783_s_at) / RFU DDX43 (11728927_at) / Fold change /veh DDX43 (11728927_at) / RFU KRT8 (11758188_x_at) / Fold change /veh KRT8 (11758188_x_at) / RFU NKD1 (11759106_at) / Fold change /veh NKD1 (11759106_at) / RFU SRD5A1 (11742802_a_at) / Fold change /veh SRD5A1 (11742802_a_at) / RFU TPSAB1 /// TPSB2 (11721975_s_at) / Fold change /veh TPSAB1 /// TPSB2 (11721975_s_at) / RFU GSTM3 (11746129_a_at) / Fold change /veh GSTM3 (11746129_a_at) / RFU IL23R (11737362_x_at) / Fold change /veh IL23R (11737362_x_at) / RFU TMEM51 (11727254_a_at) / Fold change /veh TMEM51 (11727254_a_at) / RFU PIWIL2 (11732686_x_at) / Fold change /veh PIWIL2 (11732686_x_at) / RFU ORM1 (11744905_x_at) / Fold change /veh ORM1 (11744905_x_at) / RFU CCDC152 (11743942_at) / Fold change /veh CCDC152 (11743942_at) / RFU ECM1 (11717891_a_at) / Fold change /veh ECM1 (11717891_a_at) / RFU IL23R (11748794_a_at) / Fold change /veh IL23R (11748794_a_at) / RFU TNFAIP8L3 (11732012_x_at) / Fold change /veh TNFAIP8L3 (11732012_x_at) / RFU MBOAT4 (11741988_at) / Fold change /veh MBOAT4 (11741988_at) / RFU 11764193_at / Fold change /veh 11764193_at / RFU TMEM53 (11763286_at) / Fold change /veh TMEM53 (11763286_at) / RFU MAGEB2 (11727129_at) / Fold change /veh MAGEB2 (11727129_at) / RFU TMEM200A (11744735_a_at) / Fold change /veh TMEM200A (11744735_a_at) / RFU CCDC152 (11751479_a_at) / Fold change /veh CCDC152 (11751479_a_at) / RFU FAM211A (11726209_a_at) / Fold change /veh FAM211A (11726209_a_at) / RFU RGS16 (11746705_a_at) / Fold change /veh RGS16 (11746705_a_at) / RFU VCAN (11755009_s_at) / Fold change /veh VCAN (11755009_s_at) / RFU RHOB (11743442_s_at) / Fold change /veh RHOB (11743442_s_at) / RFU RGS16 (11720943_a_at) / Fold change /veh RGS16 (11720943_a_at) / RFU RGS16 (11720944_at) / Fold change /veh RGS16 (11720944_at) / RFU, VPS4B / Fold change vs veh, VPS4B / RFU, CREB1 / Fold change vs veh, CREB1 / RFU, DNAJC13 / Fold change vs veh, DNAJC13 / RFU, GNAQ / Fold change vs veh, GNAQ / RFU, CDK5R1 / Fold change vs veh, CDK5R1 / RFU, ZRANB3 / Fold change vs veh, ZRANB3 / RFU, CUL4A / Fold change vs veh, CUL4A / RFU, CCNY / Fold change vs veh, CCNY / RFU, UFL1 / Fold change vs veh, UFL1 / RFU, COG3 / Fold change vs veh, COG3 / RFU, DIAPH2 / Fold change vs veh, DIAPH2 / RFU, SKA2 / Fold change vs veh, SKA2 / RFU, AFF3 / Fold change vs veh, AFF3 / RFU, LMF1 / Fold change vs veh, LMF1 / RFU, IPO11 / Fold change vs veh, IPO11 / RFU, DFFB / Fold change vs veh, DFFB / RFU, FOXP1 / Fold change vs veh, FOXP1 / RFU, CARD8 / Fold change vs veh, CARD8 / RFU, STRN3 / Fold change vs veh, STRN3 / RFU, ADK / Fold change vs veh, ADK / RFU, RASSF2 / Fold change vs veh, RASSF2 / RFU, WIPF1 / Fold change vs veh, WIPF1 / RFU, LARP1B / Fold change vs veh, LARP1B / RFU, RASA1 / Fold change vs veh, RASA1 / RFU, RB1 / Fold change vs veh, RB1 / RFU, PPFIA1 / Fold change vs veh, PPFIA1 / RFU, MAT2A / Fold change vs veh, MAT2A / RFU, CCT5 / Fold change vs veh, CCT5 / RFU, WDR92 / Fold change vs veh, WDR92 / RFU, CUX1 / Fold change vs veh, CUX1 / RFU, TTC7A / Fold change vs veh, TTC7A / RFU, TMEM135 / Fold change vs veh, TMEM135 / RFU, DEPTOR / Fold change vs veh, DEPTOR / RFU, CPM / Fold change vs veh, CPM / RFU, DNAJB6 / Fold change vs veh, DNAJB6 / RFU, CACNA2D3 / Fold change vs veh, CACNA2D3 / RFU, DTX4 / Fold change vs veh, DTX4 / RFU, TFCP2 / Fold change vs veh, TFCP2 / RFU, GMCL1 /// GMCL1P1 / Fold change vs veh, GMCL1 /// GMCL1P1 / RFU, AEBP2 / Fold change vs veh, AEBP2 / RFU, SNHG1 /// SNORD22 /// SNORD25 /// SNORD26 /// SNORD27 /// SNORD28 /// SNORD29 /// SNORD31 / Fold change vs veh, SNHG1 /// SNORD22 /// SNORD25 /// SNORD26 /// SNORD27 /// SNORD28 /// SNORD29 /// SNORD31 / Fold change (Aza/veh), C12orf56 (ProbeSet 11735607_a_at) / Fold change (ACY-1035/veh), C12orf56 (ProbeSet 11735607_a_at) / Fold change (Aza/veh), FGFR1OP (ProbeSet 11751329_s_at) / Fold change (ACY-1035/veh), FGFR1OP (ProbeSet 11751329_s_at) / Fold change (Aza/veh), VPS36 (ProbeSet 11739960_a_at) / Fold change (ACY-1035/veh), VPS36 (ProbeSet 11739960_a_at) / RFU SYPL1 (11715823_x_at) / Fold change /veh SYPL1 (11715823_x_at) / RFU IGFBP7 (11715501_s_at) / Fold change /veh IGFBP7 (11715501_s_at) / RFU REEP3 (11722064_at) / Fold change /veh REEP3 (11722064_at) / RFU IGLL1 (11728026_x_at) / Fold change /veh IGLL1 (11728026_x_at): dose or concentration left out as unconfirmed
Conditions: ProbeSet 11749645_x_at; LIST B

Q: How did the “RFU, ZNF268” value turn out when Nc1ncn([C@@H]2O[C@H](CO)[C@@H](O)[C@H]2O)c(=O)n1 [azacitidine] was run?
A: Its value is 156.52 RFU.
